From US12357620B2 (New York Medical College, priority 2019, dated 2025)
Entries after “also recorded” stand apart in the source; their conditions may differ.

Experiments:
[1] = tested on: circulating aged neutrophils (CANs); assay: Circulating aged neutrophils (CANs) by multicolor flow cytometry in SCD patients on rifaximin; assay type: in vivo, human
Description: (§1) (ClinicalTrials.gov Identifier: NCT03719729). There were eight males and five females. Ten patients had HbSS, two HbSß^0thal, and one HbSC. Their median age was 29 years (range 24-56). The median number of VOC in the previous 12 months was 4.5 (range 2-13) and number of days needing intravenous opioid analgesia (IOA) was 25.5 days (range 8-198). In 12 of the 13 patients, the VOC was in the form of musculo-skeletal pain typical in distribution for the VOC that normally affected individual patients and in one patient, the VOC was predominantly in the form of recurrent priapism. Five of the patients were already taking hydroxyurea and none L-glutamine or on a transfusion program. Six patients were taking oral opioid at home for chronic pain. The study ran between November 2018 and early August 2019, covering the winter months when most of the patients reported having most frequent VOC. […] CANs were measured by multicolor flow cytometry. Neutrophils were gated by Gr-1^hi CD115^lo SSC^hi and CANs by CD62L^lo CXCR4^hi within the neutrophil population.

serum CD62L = assay: Serum CD62L, marker of neutrophil activation, in SCD patients; assay type: in vivo, human; details: SCD subjects following rifaximin treatment
serum iFABP = assay: Serum intestinal Fatty Acid Binding Protein (iFABP), intestinal injury, in SCD patients; assay type: in vivo, human; details: 12 SCD patients following rifaximin; to levels comparable to controls without SCD
serum LPS = assay: Serum lipopolysaccharides (LPS), bacterial translocation, in SCD patients; assay type: in vivo, human; details: all treated patients vs pre-treatment; to levels comparable to controls without SCD
urinary 3-IS = assay: Urinary 3-IS, total intestinal microbial load, in SCD patients; assay type: in vivo, human; details: after being started on oral rifaximin
intestinal microbiome = assay: 16S rRNA analysis of stool specimens for changes in intestinal microbiome; assay type: in vivo, human; details: during vs pre-rifaximin treatment
Description: Relative abundances were transformed with the additive log ratio (alr), prior to calculating the difference, to reduce the spurious correlations associated with compositional data. Positive differences signify increased abundance post treatment. Histograms represent the frequency of differences between during and pre-rifaximin treatment alr values, where an increase of abundance during treatment is indicated by a shift of the distribution towards the right.

patients with SCD [2] = assay: Clinical trial NCT03719729: VOC episodes and days needing intravenous opioid analgesia; assay type: in vivo, human
Description: as §1
(§2) Twelve of the 13 patients accrued to the study were evaluable for response. […] The mean self-reported medication compliance of the intended doses was 86% (range 50-100). The median number of VOC during the study period decreased from the expected 2.25 (range 1-6.5) per 6 months to 1 per 6 months (range 0-4) (p=0.003) (FIG. 8). […] Their self-reported medication compliance was 100%. The median decrease in days needing IOA over the six-month study-period was 9 (range 1-55), and the median % reduction was 82 (range 20-100) (p=0.008) (FIG. 9). Total number of days needing IOA was reduced from the expected 254 in six months to 98 during the study period. […] Reported adverse events: 1 case of self-limiting probable viral gastroenteritis (culture negative, C. diff negative by PCR) and 2 cases of increased thirst. Slight nausea was common in the first week.

patients with SCD [3] = assay: Clinical trial: laboratory analyses, tolerability and adverse events; assay type: in vivo, human
Description: as §1, §2

patients with SCD [4] = assay: Quality of Life survey using the FANTLC questionnaire; assay type: in vivo, human
Description: Four aspects of QoL issues were examined: Physical well-being, Social well-being, Emotional well-being, and Functional well-being. The scores for response for each of the question were on a scale of 0-4 (0=not at all; 4=very much). As a group, the median score for response to the question “I have pain” decreased from 3.5 to 2 (p=0.08). When the two patients who reported only slight pain before the study (score of 0 or 1) were excluded from the analysis, the median score decreased from 4 to 3 (p=0.04). Changes in the functional well-being of the subjects was examined. […] However, when three subjects were excluded who reported excellent functional well-being even before the study (scores of 3 o 4 for all 7 questions) from the analysis, there was an improvement in the functional well-being of the 9 patients, with the median composite score increased from 14 to 16 (p=0.06).

Clostridium difficile = details: cited from earlier work

## CO[C@H]1/C=C/O[C@@]2(C)Oc3c(C)c(O)c4c(O)c(c5c(nc6cc(C)ccn65)c4c3C2=O)NC(=O)/C(C)=C\C=C\[C@H](C)[C@H](O)[C@@H](C)[C@@H](O)[C@@H](C)[C@H](OC(C)=O)[C@@H]1C [rifaximin]
[1]; SCD patients, 550 mg twice a day, after 2-4 weeks, range 2.63-20.25, pre-treatment median 12.65% [range 6.07-40.05], two-tailed p=0.0036
  median CANs after rifaximin therapy: 4.55%
[1]; all twelve patients, after 2-4 weeks of rifaximin
  change in CANs after being started on rifaximin: marked reduction; also recorded: dramatic reduction
[1]; two patients whose CANs were analyzed
  CANs at the three-month time-point: continued to decrease
Serum CD62L
  change in serum CD62L: drop and significant drop
Serum iFABP
  change in serum iFABP: dropped significantly
Serum LPS
  change in serum LPS levels: dropped significantly
Urinary 3-IS
  change in urinary 3-IS: drops and drop
Intestinal microbiome
  abundance of Akkermansia in stool: trend towards increased abundance
  abundance of Bacteroides in stool: increase in the abundance
  abundance of Escherichia-Shigella in stool: trend towards increased abundance
Patients with SCD [2]; 12 patients, six months of rifaximin, range 0-4, expected 2.25 (range 1-6.5) per 6 months, p=0.003
  median number of VOC during the study period: 1 per 6 months
Patients with SCD [2]; expected 254 in six months
  total number of days needing IOA during the study period: 98 days
Patients with SCD [2]; self-reported medication compliance 100%
  response of the one patient whose VOC was predominantly priapism: did not respond
Patients with SCD [2]; six-month study period vs expected, range 1-55
  median decrease in days needing IOA: 9 days
Patients with SCD [2]; six-month study period vs expected, range 20-100, p=0.008
  median % reduction in days needing IOA: 82%
Patients with SCD [3]; both, human, in vivo, 6 months
  adverse event: increased thirst: 2 cases
Patients with SCD [3]; culture negative, C. diff negative by PCR, 12 patients
  adverse event: self-limiting probable viral gastroenteritis: 1 case
Patients with SCD [3]; human, in vivo
  adverse event: slight nausea: common
  change in bilirubin: did not show any significant change
  change in haptoglobin: did not show any significant change
  change in hemoglobin: did not show any significant change
  change in serum lactate dehydrogenase: did not show any significant change
  change in white cell counts: did not show any significant change
Patients with SCD [4]; 9 patients, three with excellent baseline excluded, before 14, p=0.06
  median composite score of functional well-being: 16
Patients with SCD [4]; after three months of rifaximin, before 1, p=0.048
  median score to the question "I am enjoying the things I usually do for fun": 2.5
Patients with SCD [4]; after three months of rifaximin, before 2, p=0.026
  median score to the question "I am able to enjoy life": 2.5
Patients with SCD [4]; following rifaximin
  functional well-being, as a group: not any significant difference
Patients with SCD [4]; following rifaximin therapy
  emotional and social well-being: No significant change
Patients with SCD [4]; scale 0-4, as a group, before rifaximin 3.5, p=0.08
  median score for response to the question "I have pain": 2
Patients with SCD [4]; scale 0-4, before rifaximin 4, p=0.04
  median score "I have pain", two patients with only slight pain excluded: 3
Clostridium difficile
  activity against Clostridium difficile: has activities against Clostridium difficile
